What all share (format): cell-based
Assay [1] has as its target T1, human CCR6 (Homo sapiens, UniProt P51684).
T1 sequence (P51684 1-374): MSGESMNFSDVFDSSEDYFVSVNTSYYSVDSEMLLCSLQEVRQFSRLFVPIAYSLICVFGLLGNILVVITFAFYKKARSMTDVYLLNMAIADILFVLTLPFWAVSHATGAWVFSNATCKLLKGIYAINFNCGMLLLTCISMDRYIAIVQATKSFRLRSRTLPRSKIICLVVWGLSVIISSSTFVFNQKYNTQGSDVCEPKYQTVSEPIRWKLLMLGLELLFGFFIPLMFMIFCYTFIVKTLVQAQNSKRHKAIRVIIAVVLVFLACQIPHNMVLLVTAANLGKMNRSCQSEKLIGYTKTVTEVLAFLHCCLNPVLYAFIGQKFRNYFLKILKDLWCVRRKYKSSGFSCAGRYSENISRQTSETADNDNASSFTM
The experiment in a line: CHO-K1 CCR6 chemotaxis assay towards CCL20. Conditions: relative -Log IC50; CHO-K1 cells overexpressing human CCR6; migration towards 100 ng/ml CCL20; 4 h. In short, it runs like this:
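Human CCR6-overexpressing CHO-K1 cells (2*10^6 cells/ml) were preincubated 30 min at 37 °C with compound (0.2% DMSO), then allowed to migrate 4 h through 8 µm Transwell pores toward 100 ng/ml CCL20. Migrated cells were counted by CellTiter Glo. −Log IC50 came from four-parameter fits normalised to DMSO without/with CCL20.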

For assay [2], the target named is T1, human CCR6. Put plainly: Human CCR6-CRE reporter assay. On the set-up: The second construct contained the open reading frame of human CCR6 in the pUNO1 backbone; host or cells: 293FT cells. Particulars: relative -Log IC50; 293FT cells transfected with human CCR6 and CRE-luciferase reporter; 6 μM Forskolin, 6 nM CCL20; 5 h. The essentials: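 293FT cells transiently co-transfected with human CCR6 and a CRE-luc2P reporter, used 48 h later. Compounds incubated with cells in medium containing 6 μM Forskolin and 6 nM CCL20 (assay-medium levels), 0.1% DMSO final, 5 h at 37° C; luminescence read, relative −Log IC50 from four-parameter fit.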

Another assay has as its system Human CD4+ T cells. The experiment in a line: CD4+ T cells chemotaxis assay towards CCL20. Particulars: Homo sapiens, CD4+ T cell, 3 h, relative -Log IC50, human CD4+ T cells stimulated with anti-CD3 and anti-CD28, migration towards 150 ng/ml CCL20. The essentials:
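Donor cells were stimulated overnight with anti-CD3/anti-CD28, then preincubated with compound for 30 min at 37° C (0.2% DMSO final). Migration through […]-pore Transwells toward 150 ng/ml CCL20 ran for 3 h at 37° C. Migrated cells were counted by CellTiter Glo, and relative −Log IC50 came from a four-parameter fit of % inhibition.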

This is an account of results in US20260070902A1, “SULFONYL DERIVATIVES AS CCR6 INHIBITORS” (Hoffmann-La Roche Inc., priority 2022, published 2026).

A word on the IC50: it is the concentration that inhibits the measured activity by half. Take `CC(C)c1nnc2cnc(-c3ccc(S(=N)(=O)[C@H]4CC[C@H](Nc5ccc(S(F)(F)(F)(F)F)cc5)CC4)cc3)cn12` (stereo partly drawn) [Example 162, {4-[3-(propan-2-yl)-[1,2,4]triazolo[4,3-a]pyrazin-6-yl]phenyl}[trans-4-{[4-(pentafluoro-λ^6-sulfanyl)phenyl]amino}cyclohexyl](imino)-λ^6-sulfanone]: the results for the IC50 against human CCR6 [1], at human CCR6 [2] and with Human CD4+ T cells were 63.1 nM, 100 nM and 79.4 nM, respectively.
For `Cc1nnc2cnc(-c3ccc(S(=N)(=O)[C@H]4CC[C@H](Nc5ccc(S(F)(F)(F)(F)F)cc5)CC4)cc3)cn12` (stereo partly drawn) [Example 170, (4-{3-methyl-[1,2,4]triazolo[4,3-a]pyrazin-6-yl}phenyl) [trans-4-{[4-(pentafluoro-λ^6-sulfanyl)phenyl]amino}cyclohexyl](imino)-λ^6-sulfanone], in that order: 2000 nM, 501 nM and 10000 nM.
The like results for `CC(C)c1nnc2ccc(-c3ccc(S(=O)(=O)N4CCC(Nc5ccc(S(F)(F)(F)(F)F)cn5)CC4)cc3)cn12` [Example 172, 5-(pentafluoro-λ^6-sulfanyl)-N-(1-{4-[3-(propan-2-yl)-[1,2,4]triazolo[4,3-a]pyridin-6-yl]benzenesulfonyl}piperidin-4-yl)pyridin-2-amine] were, in that order, 7.94 nM, 20 nM and 1 nM.
The like results for `O=S(=O)(c1ccc(-c2ccc3nccn3c2)cc1)N1CCC(Nc2ccc(S(F)(F)(F)(F)F)cn2)CC1` [Example 173, N-[1-(4-{imidazo[1,2-a]pyridin-6-yl}benzenesulfonyl)piperidin-4-yl]-5-(pentafluoro-λ^6-sulfanyl)pyridin-2-amine] were, in that order, 3.98 nM, 31.6 nM and 2.51 nM.
For the molecule `Cc1nnc2ccc(-c3ccc(S(=O)(=O)N4CCC(Nc5ccc(S(F)(F)(F)(F)F)cn5)CC4)cc3)cn12` [Example 174, N-[1-(4-{3-methyl-[1,2,4]triazolo[4,3-a]pyridin-6-yl}benzenesulfonyl)piperidin-4-yl]-5-(pentafluoro-λ^6-sulfanyl)pyridin-2-amine], the IC50 against human CCR6 [1] was 5.01 nM; against human CCR6 [2] it was 25.1 nM; in the assay with Human CD4+ T cells, 2.51 nM.
The like results for `NC(=O)c1cc(-c2ccc(S(=O)(=O)N3CCC(Nc4ccc(S(F)(F)(F)(F)F)cn4)CC3)cc2)ccn1` [Example 175, 4-{4-[(4-{[5-(pentafluoro-λ^6-sulfanyl)pyridin-2-yl]amino}piperidin-1-yl)sulfonyl]phenyl}pyridine-2-carboxamide] were, in that order, 10 nM, 20 nM and 5.01 nM.
For `O=S(=O)(c1ccc(-c2ccc3nnc(C(F)F)n3c2)cc1)[C@H]1CC[C@H](Nc2ccc(S(F)(F)(F)(F)F)cc2)CC1` [Example 176, 4-(pentafluoro-λ^6-sulfanyl)-N-[trans-4-{4-[3-(difluoromethyl)-[1,2,4]triazolo[4,3-a]pyridin-6-yl]benzenesulfonyl}cyclohexyl]aniline], in that order: 10 nM, 126 nM and 1.58 nM.
For `NC(=O)c1cc(-c2ccc(S(=O)(=O)N3CCC(Nc4ccc(S(F)(F)(F)(F)F)cc4)CC3)cc2)ccn1` [Example 177, 4-{4-[(4-{[4-(pentafluoro-λ^6-sulfanyl)phenyl]amino}piperidin-1-yl)sulfonyl]phenyl}pyridine-2-carboxamide], in that order: 79.4 nM, 79.4 nM and 12.6 nM.
In the case of `CC(C)c1nnc2ccc(-c3ccc(S(=O)(=O)[C@H]4CC[C@H](Nc5ccc(S(F)(F)(F)(F)F)cn5)CC4)cc3)cn12` [Example 178, 5-(pentafluoro-λ^6-sulfanyl)-N-[trans-4-{4-[3-(propan-2-yl)-[1,2,4]triazolo[4,3-a]pyridin-6-yl]benzenesulfonyl}cyclohexyl]pyridin-2-amine], the figures for the IC50 on human CCR6 [1], against human CCR6 [2] and in the assay on Human CD4+ T cells were 10 nM, 63.1 nM and 0.794 nM, respectively.
The like results for `Cc1nnc2ccc(-c3ccc(S(=O)(=O)[C@H]4CC[C@H](Nc5ccc(S(F)(F)(F)(F)F)cn5)CC4)cc3)cn12` [Example 179, 5-(pentafluoro-λ^6-sulfanyl)-N-[trans-4-(4-{3-methyl-[1,2,4]triazolo[4,3-a]pyridin-6-yl}benzenesulfonyl)cyclohexyl]pyridin-2-amine] were, in that order, 10 nM, 79.4 nM and 6.31 nM.
The like results for `O=S(=O)(c1ccc(-c2ccc3nccn3c2)cc1)[C@H]1CC[C@H](Nc2ccc(S(F)(F)(F)(F)F)cn2)CC1` [Example 180, 5-(pentafluoro-λ^6-sulfanyl)-N-[trans-4-(4-{imidazo[1,2-a]pyridin-6-yl}benzenesulfonyl)cyclohexyl]pyridin-2-amine] were, in that order, 25.1 nM, 100 nM and 7.94 nM.
